Experimental data from patent US20110038897A1, “ORAL CONTROLLED RELEASE FORMULATIONS” (priority 1999, published 2011).

Experiment: Biopharmaceutical properties of rivastigmine in humans
Format: in vivo

CCN(C)C(=O)Oc1cccc([C@H](C)N(C)C)c1 [Rivastigmine]
absorption: rapidly and completely absorbed | metabolism (esterases, e.g., acetyl and butyryl cholinesterase): metabolised mainly through hydrolysis by esterases
